Values quoted from earlier work as cited in patent US20240261272A1, “LPA1 ANTAGONISTS FOR TREATING INTERSTITIAL LUNG DISEASE” (Bristol-Myers Squibb Company, priority 2022, published 2024).

Key:
patients with IPF = conditions: cited from earlier work
patients with PPF = conditions: 52-week study period; cited from earlier work

Cc1ccc(=O)n(-c2ccccc2)c1 [pirfenidone]
decline in lung function (in words) (patients with IPF): significantly reduce the decline in lung function

COC(=O)c1ccc2c(c1)NC(=O)/C2=C(\Nc1ccc(N(C)C(=O)CN2CCN(C)CC2)cc1)c1ccccc1 [nintedanib]
decline in lung function (in words) (patients with IPF): significantly reduce the decline in lung function | progression of lung fibrosis, annual rate of decline in FVC versus placebo (in words) (patients with PPF): slower progression of lung fibrosis than those who received placebo
